According to patent US8088805B2, “Inhibitors of histone deacetylase” (MethylGene Inc., priority 2004, dated 2012):
pIC50: −log10 of the molar value.

How the values were obtained:
[1] = system: A549 lung cancer cells; experiment: Human tumor xenograft in vivo, A549; details: mice
Protocol: (§1) Eight to ten week old female BCD1 mice (Taconic Labs, Great Barrington, N.Y.) were injected subcutaneously in the flank area with 2×10^6 preconditioned HCT116 human colorectal carcinoma cells, SW48 colon cancer cells, and A549 lung cancer cells. Preconditioning of these cells was done by a minimum of three consecutive tumor transplantations in the same strain of nude mice. Subsequently, tumor fragments of approximately 30 mgs were excised and implanted subcutaneously in mice, in the left flank area, under Forene anesthesia (Abbott Labs, Geneva, Switzerland). When the tumors reached a mean volume of 100 mm^3, the mice were treated intraperitoneally by daily injection, with a solution of the histone deacetylase inhibitor in DMSO, at a starting dose of 10 mg/kg. The optimal dose of the HDAC inhibitor was established by dose response experiments according to standard protocols. Tumor volume was calculated every second day post infusion according to standard methods (e.g., Meyer et al., Int. J. Cancer 43: 851-856 (1989)).

[2] = system: Histone H4 acetylation in T24 human bladder cancer cells; experiment: Histone H4 acetylation in whole cells by immunoblots; assay type: cell-based; details: ratio of EC50 of compound to EC50 of control MS-275, 16 h
Protocol: T24 human bladder cancer cells growing in culture were incubated with HDAC inhibitors for 16 h. Histones were extracted from the cells after the culture period as described by M. Yoshida et al. (J. Biol. Chem. 265(28): 17174-17179 (1990)). […] of total histone protein was loaded onto SDS/PAGE and transferred to nitrocellulose membranes. Membranes were probed with polyclonal antibodies specific for acetylated histone H-4 (Upstate Biotech Inc.), followed by horse radish peroxidase conjugated secondary antibodies (Sigma). Enhanced Chemiluminescence (ECL) (Amersham) detection was performed using Kodak films (Eastman Kodak). Acetylated H-4 signal was quantified by densitometry. Data are presented as the ratio of the concentration effective for […] the acetylated H-4 signal by 50% (EC50) using the indicated compound of the invention to a control compound, MS-275. If the indicated ratio is 1, then the compound of the invention is as effective as the MS-275 control compound. […] Further information regarding the MS-275 compound can be found in Suzuki et al., J. Med. Chem. 1999, pp. 3001-3003.

[3] = molecular target: T1, cloned recombinant human HDAC-1 enzyme (Homo sapiens, UniProt Q13547); experiment: HDAC-1 enzymatic inhibition, Assay 1 ([3H]-acetylated histone substrate); assay type: biochemical; details: Assay 1: [3H]-labeled acetylated histone substrate, recombinant hHDAC-1
T1 construct: made in house; host or cells: Baculovirus insect cell expression system
Protocol: Assay 1. HDAC inhibitors were screened against a cloned recombinant human HDAC-1 enzyme expressed and purified from a Baculovirus insect cell expression system. For deacetylase assays, 20,000 cpm of the [^3H]-metabolically labeled acetylated histone substrate (M. Yoshida et al., J. Biol. Chem. 265(28): 17174-17179 (1990)) was incubated with 30 μg of the cloned recombinant hHDAC-1 for 10 minutes at 37° C. The reaction was stopped by adding acetic acid (0.04 M, final concentration) and HCl (250 mM, final concentration). The mixture was extracted with ethyl acetate and the released [^3H]-acetic acid was quantified by scintillation counting. For inhibition studies, the enzyme was preincubated with compounds at 4° C. for 30 minutes prior to initiation of the enzymatic assay. IC50 values for HDAC enzyme inhibitors were determined by performing dose response curves with individual compounds and determining the concentration of inhibitor producing fifty percent of the maximal inhibition.
Assay 1 was used to measure HDAC activity of compounds 10c, 13e, 16d, 26b, 44, 47, 61a, 61b, 63, 134, 138, and 308. Assay 2 was used to measure HDAC activity of compounds 361, 366, 367, 368, 369, 370, 371, 372, 373, 374, 375, 376, 377, and 378. In Table 14, “a” indicates activity of ≦0.1 μM, “b” indicates activity of ≦1 μM, “c” indicates activity of ≦5 μM, and “d” indicates activity of >5 μm. For the H4-Ac T24 EC vs. MS-275 assay in Table 14, “u” indicates less than 1, “v” indicates 1, and “w” indicates greater than 1. For the H3 Ac t24 assay in Table 14, “x” indicates activity of ≦1 μM, “y” indicates activity of ≦10 μM, and “z” indicates activity of ≦20 μM.

[4] = system: HCT116 cells; experiment: MTT assay; assay type: cell-based; details: Homo sapiens, HCT-116, 72 hours
Protocol: HCT116 cells (2000/well) were plated into 96-well tissue culture plates one day before compound treatment. Compounds at various concentrations were added to the cells. The cells were incubated for 72 hours at 37° C. in 5% CO2 incubator. MTT (3-[4,5-dimethylthiazol-2-yl]-2,5diphenyl tetrazolium bromide, Sigma) was added at a final concentration of 0.5 mg/ml and incubated with the cells for 4 hours before one volume of solubilization buffer (50% N,N-dimethylformamide, 20% SDS, pH 4.7) was added onto the cultured cells. After overnight incubation, solubilized dye was quantified by colorimetric reading at 570 nM using a reference at 630 nM using an MR700 plate reader (Dynatech Laboratories Inc.). OD values were converted to cell numbers according to a standard growth curve of the relevant cell line. The concentration which reduces cell numbers to 50% of that of solvent treated cells is determined as MTT IC50. In Table 14, “a” indicates activity of ≦0.1 μM, “b” indicates activity of ≦1 μM, and “c” indicates activity of ≦5 μM.

[5] = system: SW48 colon cancer cells; experiment: Human tumor xenograft in vivo, SW48; details: Mus musculus, 40 mg/kg ip, mice, read-out: % Inhibition (relative to vehicle control) SW48
Protocol: as §1

[6] = system: HCT116 human colorectal carcinoma cells; experiment: Human tumor xenograft in vivo, HCT116; details: Mus musculus, HCT-116; 30 mg/kg ip, mice; read-out: % Inhibition (relative to vehicle control) HCT116
Protocol: as §1

T1 sequence (Q13547 whole entry): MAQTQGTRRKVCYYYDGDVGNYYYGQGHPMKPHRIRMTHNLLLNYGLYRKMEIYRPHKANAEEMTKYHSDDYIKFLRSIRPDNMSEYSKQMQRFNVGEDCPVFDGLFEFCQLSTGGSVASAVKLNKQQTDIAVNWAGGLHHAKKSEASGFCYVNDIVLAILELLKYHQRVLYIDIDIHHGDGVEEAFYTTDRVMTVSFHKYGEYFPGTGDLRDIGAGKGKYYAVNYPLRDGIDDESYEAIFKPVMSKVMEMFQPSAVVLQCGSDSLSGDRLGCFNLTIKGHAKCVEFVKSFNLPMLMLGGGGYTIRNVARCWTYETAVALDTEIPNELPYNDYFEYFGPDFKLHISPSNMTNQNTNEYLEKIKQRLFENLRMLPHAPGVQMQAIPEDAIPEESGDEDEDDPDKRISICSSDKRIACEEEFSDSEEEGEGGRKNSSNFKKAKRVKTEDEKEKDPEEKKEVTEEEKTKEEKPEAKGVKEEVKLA

pIC50 [3]	pIC50 [4]	Compound	% Inhibition (relative to vehicle control) A549 ([1]; 40 mg/kg ip)	H4-Ac T24 EC vs. MS-275 [2]	inhibition in vivo at 40 mg/kg [5]	% Inhibition (relative to vehicle control) A549 ([1]; 30 mg/kg ip)	inhibition in vivo at 30 mg/kg [6]
5.30 to 6.00	≥ 7.00	Nc1ccccc1NC(=O)c1ccc(CNc2nccc(-c3ccccn3)n2)cc1 [26b, N-(2-Amino-phenyl)-4-[(4-pyridin-2-yl-pyrimidin-2-ylamino)-methyl]-benzamide]	74.4%	v (“v” indicates 1)	75.1%		
5.30 to 6.00	≥ 7.00	CN(C)CCOc1ccc2nc(NCc3ccc(C(=O)Nc4ccccc4N)cc3)sc2c1 [compound 138, N-(2-Amino-phenyl)-4-{[6-(2-dimethylamino-ethoxy)-benzothiazol-2-ylamino]-methyl}-benzamide]		u (“u” indicates less than 1)		83.7%	79.8%
